# Source: patent publication US12365655B2, “Compounds” (CTXT PTY LTD, priority 2018, dated 2025)
# Legend:
# MOZ-KAT6A = MOZ-KAT6A (Homo sapiens, UniProt Q92794, A567V); assay: Acetyltransferase biochemical assay (AlphaScreen), KAT6A
# TIP60-KAT5 = TIP60-KAT5 (Homo sapiens, UniProt Q92993); assay: Acetyltransferase biochemical assay (AlphaScreen), KAT5
# MOF-KAT8 = biological target: T1, MOF-KAT8 (Homo sapiens, UniProt Q9H7Z6); assay: biochemical
# T1 sequence (Q9H7Z6 with tags, fused parts or gaps): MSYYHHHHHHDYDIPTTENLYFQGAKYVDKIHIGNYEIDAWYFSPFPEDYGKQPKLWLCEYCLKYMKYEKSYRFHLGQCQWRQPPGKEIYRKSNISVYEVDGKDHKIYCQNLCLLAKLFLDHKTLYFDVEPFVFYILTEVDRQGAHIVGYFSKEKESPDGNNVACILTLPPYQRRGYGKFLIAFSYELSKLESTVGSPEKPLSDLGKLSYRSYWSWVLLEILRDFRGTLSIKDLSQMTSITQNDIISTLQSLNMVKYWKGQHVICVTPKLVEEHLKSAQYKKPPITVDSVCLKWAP
# HBO-KAT7 = HBO-KAT7 (Homo sapiens, UniProt O95251); assay: Acetyltransferase biochemical assay (AlphaScreen), KAT7
# HBO-KAT7, sequence (O95251 with tags, fused parts or gaps): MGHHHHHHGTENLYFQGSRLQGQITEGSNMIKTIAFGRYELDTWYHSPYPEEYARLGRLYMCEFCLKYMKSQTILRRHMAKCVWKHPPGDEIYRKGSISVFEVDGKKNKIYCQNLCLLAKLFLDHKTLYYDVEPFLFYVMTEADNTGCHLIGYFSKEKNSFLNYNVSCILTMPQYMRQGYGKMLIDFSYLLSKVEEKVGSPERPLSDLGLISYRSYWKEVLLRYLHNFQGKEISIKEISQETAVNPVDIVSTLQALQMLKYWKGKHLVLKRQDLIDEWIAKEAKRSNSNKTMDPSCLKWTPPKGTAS
# MOZ-KAT6A, sequence (Q92794 with tags, fused parts or gaps A567V): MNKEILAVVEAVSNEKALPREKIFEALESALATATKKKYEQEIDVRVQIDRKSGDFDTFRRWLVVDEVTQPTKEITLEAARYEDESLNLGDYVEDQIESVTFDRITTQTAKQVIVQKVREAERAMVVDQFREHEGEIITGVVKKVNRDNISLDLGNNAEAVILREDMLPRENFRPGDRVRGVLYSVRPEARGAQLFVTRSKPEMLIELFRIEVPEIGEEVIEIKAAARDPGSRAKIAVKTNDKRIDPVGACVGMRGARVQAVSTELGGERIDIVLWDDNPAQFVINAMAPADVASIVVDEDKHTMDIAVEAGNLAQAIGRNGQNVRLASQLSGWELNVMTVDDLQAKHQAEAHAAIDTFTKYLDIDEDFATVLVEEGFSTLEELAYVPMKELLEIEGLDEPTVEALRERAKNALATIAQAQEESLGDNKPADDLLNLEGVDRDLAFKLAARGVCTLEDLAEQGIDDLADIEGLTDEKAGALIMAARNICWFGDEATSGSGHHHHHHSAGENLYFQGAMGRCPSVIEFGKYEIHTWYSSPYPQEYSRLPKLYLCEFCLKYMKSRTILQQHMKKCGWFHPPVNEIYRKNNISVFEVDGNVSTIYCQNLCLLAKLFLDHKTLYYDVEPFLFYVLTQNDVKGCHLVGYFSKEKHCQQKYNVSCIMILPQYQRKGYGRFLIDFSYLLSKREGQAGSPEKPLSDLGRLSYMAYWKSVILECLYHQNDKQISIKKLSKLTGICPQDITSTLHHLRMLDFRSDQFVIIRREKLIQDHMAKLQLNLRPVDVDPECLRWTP
# TIP60-KAT5, sequence (Q92993 with tags, fused parts or gaps isoform Q92993-2): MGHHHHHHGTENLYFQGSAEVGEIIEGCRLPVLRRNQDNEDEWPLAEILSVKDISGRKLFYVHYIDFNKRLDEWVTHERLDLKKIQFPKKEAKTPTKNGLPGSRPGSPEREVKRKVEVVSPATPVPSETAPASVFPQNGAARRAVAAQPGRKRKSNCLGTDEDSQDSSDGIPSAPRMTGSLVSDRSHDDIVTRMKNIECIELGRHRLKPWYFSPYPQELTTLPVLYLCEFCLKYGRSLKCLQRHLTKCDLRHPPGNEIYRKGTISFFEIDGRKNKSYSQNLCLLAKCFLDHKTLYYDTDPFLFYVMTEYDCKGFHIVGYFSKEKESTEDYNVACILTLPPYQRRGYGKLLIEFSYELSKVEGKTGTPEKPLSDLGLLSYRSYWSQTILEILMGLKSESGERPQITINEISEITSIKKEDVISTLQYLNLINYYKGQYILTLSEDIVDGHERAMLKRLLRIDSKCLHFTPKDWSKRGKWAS
SMILES,IC50 (MOZ-KAT6A) [µM],IC50 (TIP60-KAT5) [µM],IC50 (MOF-KAT8) [µM],IC50 (HBO-KAT7) [µM]
CCc1ccc(OC)c(S(=O)(=O)Nc2noc3cccc(Cl)c23)c1 [Example 154],0.516,25.3,2.57,3.13
"Cc1ncc(-c2ccc(C)c(S(=O)(=O)Nc3noc4cccc(Cl)c34)c2)o1 [Example 18, N-(4-chlorobenzo [d]isoxazol-3-yl)-2-methyl-5-(2-methyloxazol-5-yl)benzenesulfonamide]",74.9,118,63.5,34.1
"CCc1ccc(OC)c(S(=O)(=O)Nc2noc3ccc(OC)cc23)c1 [Example 111, 5-Ethyl-2-methoxy-N-(5-methoxybenzo[d]isoxazol-3-yl)benzenesulfonamide]",0.842,26.6,3.22,4.54
"Cc1ccc(-c2ccno2)cc1S(=O)(=O)Nc1noc2cccc(Cl)c12 [Example 19, N-(4-chlorobenzo [d]isoxazol-3-yl)-5-(isoxazol-5-yl)-2-methylbenzenesulfonamide]",32.2,65,41,36.1
"CS(=O)(=O)c1ccc(S(=O)(=O)Nc2noc3cccc(Cl)c23)cc1 [Example 21, N-(4-chlorobenzo [d]isoxazol-3-yl)-4-(methylsulfonyl) benzenesulfonamide]",24.8,> 125,39.7,25.5
"COCc1cc2onc(NS(=O)(=O)c3cccnc3)c2cc1C [Example 165, N-(6-(methoxymethyl)-5-methylbenzo[d]isoxazol-3-yl)pyridine-3-sulfonamide]",99.9,> 125,> 125,30.7
"COc1cc2c(cc1S(=O)(=O)Nc1noc3ccc(C4CC4)cc13)CCCC2 [Example 205, N-(5-Cyclopropylbenzo[d]isoxazol-3-yl)-3-methoxy-5,6,7,8-tetrahydronaphthalene-2-sulfonamide]",0.115,3.73,3.44,0.936
CCOc1ccc2onc(NS(=O)(=O)c3cc(CC)ccc3OC)c2c1 [Example 109],1.21,69.3,9.12,4.07
"Cc1ccc(-n2cccn2)cc1S(=O)(=O)Nc1noc2cccc(Cl)c12 [Example 20, N-(4-chlorobenzo [d]isoxazol-3-yl)-2-methyl-5-(1H-pyrazol-1-yl)benzenesulfonamide]",29.4,81.5,61.4,41.3
"COc1cccc(OCC(N)=O)c1S(=O)(=O)Nc1noc2cccc(OC)c12 [Example 219, 2-(3-Methoxy-2-(N-(4-methoxybenzo[d]isoxazol-3-yl)sulfamoyl)phenoxy)acetamide]",33.3,> 125,69.9,60.7
"COc1cccc(OCc2cnn(C)c2)c1S(=O)(=O)Nc1noc2cccc(OC)c12 [Example 221, 2-Methoxy-N-(4-methoxybenzo[d]isoxazol-3-yl)-6-((1-methyl-1H-pyrazol-4-yl)methoxy)benzenesulfonamide]",37.5,> 125,27.9,63.7
"O=S(=O)(Nc1noc2cccc(Cl)c12)c1ccccc1-c1cnco1 [Example 11, N-(4-chlorobenzo [d]isoxazol-3-yl)-2-(oxazol-5-yl)benzenesulfonamide]",> 125,> 125,35.6,60.5
"O=S(=O)(Nc1noc2cccc(Cl)c12)c1ccccc1 [Example 151, N-(4-chlorobenzo[d]isoxazol-3-yl)benzenesulfonamide]",27.9,> 125,34.7,25.6
COCc1cc(OC)c2c(NS(=O)(=O)c3c(OC)cccc3OC)noc2c1Cl [Example 161],1.87,> 125,118,2.51
"COCc1cc2onc(NS(=O)(=O)c3ccc(OC)nc3)c2cc1C [Example 164, 6-methoxy-N-(6-(methoxymethyl)-5-methylbenzo[d]isoxazol-3-yl)pyridine-3-sulfonamide]",27.2,> 125,> 125,61.6
"COc1cccc(OC)c1S(=O)(=O)Nc1noc2ccc(OC(F)(F)F)cc12 [Example 100, 2,6-Dimethoxy-N-(5-(trifluoromethoxy)benzo [d]isoxazol-3-yl)benzenesulfonamide]",0.972,51.7,62.6,2.24
"CNc1cccc(OC)c1S(=O)(=O)Nc1noc2cccc(OC)c12 [Example 214, 2-Methoxy-N-(4-methoxybenzo[d]isoxazol-3-yl)-6-(methylamino)benzenesulfonamide]",36.4,> 125,> 125,> 125
"COc1cccc2onc(NS(=O)(=O)c3cccc4ccoc34)c12 [Example 81, N-(4-methoxybenzo[d]isoxazol-3-yl)benzofuran-7-sulfonamide]",43.6,31.5,9.43,6.73

SMILES,IC50 (MOZ-KAT6A) [µM],IC50 (TIP60-KAT5) [µM],IC50 (MOF-KAT8) [µM],IC50 (HBO-KAT7) [µM]
COc1cccc(OC)c1S(=O)(=O)Nc1noc2cccc(N)c12 [Example 224],50.4,> 125,113,> 125
CCOc1cccc2c(NS(=O)(=O)c3cc(CC)ccc3OC)noc12 [Example 132],7.45,53,15.3,11.8
"CCc1ccc2onc(NS(=O)(=O)c3cc4c(cc3OC)CCCC4)c2c1 [Example 204, N-(5-Ethylbenzo[d]isoxazol-3-yl)-3-methoxy-5,6,7,8-tetrahydronaphthalene-2-sulfonamide]",0.4,4.57,3.06,3.05
"COc1cccc(OC)c1S(=O)(=O)Nc1noc2cccc([N+](=O)[O-])c12 [Example 223, 2,6-Dimethoxy-N-(4-nitrobenzo[d]isoxazol-3-yl)benzenesulfonamide]",25.5,> 125,42.4,43.5
"CCc1cc(S(=O)(=O)Nc2noc3cccc(Cl)c23)c(=O)n(C)c1 [Example 107, N-(4-Chlorobenzo[d]isoxazol-3-yl)-5-ethyl-1-methyl-2-oxo-1,2-dihydropyridine-3-sulfonamide]",14.9,74.1,42.1,11.7
"COc1ccc(S(=O)(=O)Nc2noc3ccc(C)cc23)c(OC)c1 [Example 170, 2,4-dimethoxy-N-(5-methylbenzo[d]isoxazol-3-yl)benzenesulfonamide]",1.5,4.83,9.67,0.982
"CCc1ccc(OC)c(S(=O)(=O)Nc2noc3cccc(OC)c23)c1OC [Example 94, 3-Ethyl-2,6-dimethoxy-N-(4-methoxybenzo[d]isoxazol-3-yl)benzenesulfonamide]",6.11,124,60.9,16.1
"O=S(=O)(Nc1noc2cccc(Cl)c12)c1cccc(S(F)(F)(F)(F)F)c1 [Example 36, N-(4-chlorobenzo [d]isoxazol-3-yl)-3-(pentafluoro-λ^6-sulfanyl)benzene sulfonamide]",17.7,39,,26.3
"COc1cccc(OCC2CC2)c1S(=O)(=O)Nc1noc2cccc(OC)c12 [Example 215, 2-(Cyclopropylmethoxy)-6-methoxy-N-(4-methoxybenzo[d]isoxazol-3-yl)benzenesulfonamide]",4.47,> 125,,16.6
"CC(C)(C)c1ccc(S(=O)(=O)Nc2noc3cccc(Cl)c23)cc1 [Example 25, 4-(tert-butyl)-N-(4-chlorobenzo[d]isoxazol-3-yl)benzenesulfonamide]",33.2,120,,41.9
CCOc1cccc2onc(NS(=O)(=O)c3cc(CC)ccc3OC)c12 [Example 112],1.46,16.5,,3.01
COc1cc(Br)ccc1S(=O)(=O)Nc1noc2ccccc12 [Example 141],39.6,> 125,,24.3
COc1ccccc1S(=O)(=O)Nc1noc2cc(Br)ccc12 [Example 157],23,> 125,,15.5
"COc1cccc2onc(NS(=O)(=O)c3c(C)ccc4cccnc34)c12 [Example 77, N-(4-methoxybenzo[d]isoxazol-3-yl)-7-methyl quinoline-8-sulfonamide]",10.8,51.8,,12
"O=S(=O)(Nc1noc2ccccc12)c1cccc(-c2ccccc2)c1 [Example 70, N-(benzo[d]isoxazol-3-yl)-[1,1-biphenyl]-3-sulfonamide]",31.3,36.8,,32
"Cc1ccc(Br)cc1S(=O)(=O)Nc1noc2cccc(Cl)c12 [Example 114, 5-Bromo-N-(4-chlorobenzo[d]isoxazol-3-yl)-2-methylbenzenesulfonamide]",29.3,59.4,,41.6
COCc1cc(OC)c2c(NS(=O)(=O)c3c(OC)cccc3OC)noc2c1I [Example 160],1.05,46.2,,1.58
